US7998995B2 (Exelixis Patent Company LLC, priority 2006, dated 2011)

Experiments:
FXR = molecular target: T1, FXR (Homo sapiens, UniProt Q96RI1); test: Measured EC50 or IC50 for FXR (assay not given); settings: IC50 or EC50 class; assay not specified
T1 sequence (Q96RI1 1-472 isoform Q96RI1-2): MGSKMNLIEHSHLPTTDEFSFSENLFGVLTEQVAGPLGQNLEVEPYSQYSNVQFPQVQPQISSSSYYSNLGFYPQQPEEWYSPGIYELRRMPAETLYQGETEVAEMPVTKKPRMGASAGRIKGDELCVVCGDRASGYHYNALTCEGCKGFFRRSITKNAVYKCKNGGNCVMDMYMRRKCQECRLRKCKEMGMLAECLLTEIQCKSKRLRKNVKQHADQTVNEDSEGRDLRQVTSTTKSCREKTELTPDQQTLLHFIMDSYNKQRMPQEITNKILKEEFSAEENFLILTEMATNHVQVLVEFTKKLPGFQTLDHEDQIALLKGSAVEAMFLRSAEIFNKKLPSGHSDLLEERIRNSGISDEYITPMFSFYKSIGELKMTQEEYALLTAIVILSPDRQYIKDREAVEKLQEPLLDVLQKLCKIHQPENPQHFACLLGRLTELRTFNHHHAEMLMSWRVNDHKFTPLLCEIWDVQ
Description: (§1) Measured EC50 or IC50 for LXR, and FXR for Compounds of the Invention
(§2) LXR and FXR activities for various compounds of the invention are presented in the following table; those compounds with EC50 or IC50 values <10 μM for at least one of LXRα, LXRβ or FXR are considered to be active. In the following Table, IC50 or EC50 data is represented as follows: A<1 μM, B=1-10 μm, and C>10 μM.

LXR = tested on: T2, LXR; test: Measured EC50 or IC50 for LXR (LXRα and/or LXRβ; assay and subtype not given); settings: IC50 or EC50 class, subtype not specified
T2 construct: fused on or other part: GST fused to the LBD in the FRET assay
Description: as §1, §2

EC50 (FXR) [µM]	EC50 (LXR) [nM]	Structure (SMILES)
1 to 10	< 1000	Cc1cc(-n2nc(C(C)(C)O)c(Cl)c2-c2c(F)cccc2Cl)ccc1-c1cccc(S(C)(=O)=O)c1 [Example 971, 2-{4-chloro-4-(2-chloro-6-fluoropehnyl)-1-[2-methyl-3′-(methylsulfonyl)biphenyl-4-yl]-1H-pyrazol-3-yl}propan-2-ol]
1 to 10	1000 to 10000	Cc1cc(-n2nc(C(C)(C)O)c(Cl)c2-c2c(Cl)cccc2Cl)ccc1-c1cccc(S(C)(=O)=O)c1 [Example 972, 2-{4-chloro-5-(2,6-dichlorophenyl)-1-[2-methyl-3′-(methylsulfonyl)biphenyl-4-yl]-1H-pyrazol-3-yl}propan-2-ol]
